Results on five molecules are retold here after patent publication US9006431B2, “Crystalline form of pemirolast” (Cardoz AB, priority 2009, dated 2015).

The conditions of data set [1]: humans; cited from earlier work.
For data set [2] the following is noted: cited from earlier work.
A short description of data set [3]: Aqueous solubility (shake 24 hours, HPLC of filtrate). It counts as physicochemical. The conditions noted are these: doubly distilled water, 22° C. Here is the method:
About 40 mg of a sample (obtained by way of the procedure described in Example 2 above) was dispersed in 0.25 mL of doubly distilled water. The suspension was shaken at 22° C. for 24 hours. Afterwards, a fast solid/liquid-separation was performed using an Eppendorf Thermomixer Comfort (400 rpm). The suspensions were filtered with Millipore Centrifugal Filter Devices (PTFE filter; 0.2 μm) in a Centrifuge Hettich EBA 12 R (15,000 g, 1 minute, 22° C.). The concentration of the sample in the filtrate was analyzed by HPLC, and the solid phase was analyzed by FT-Raman spectroscopy.

The nature of data set [4]: Dynamic Vapor Sorption (DVS) hygroscopicity classification. It counts as physicochemical. Conditions: for relative humidity above which significant water uptake starts: DVS; for hygroscopicity class by DVS analysis: mass change at 85% RH compared to the starting material. Here is the method:
HPLC was performed on a TSP HPLC (UV3000, AS3000, P4000, SCM1000 Soft. Version 4.1); column: Waters, X Terra MS C18 4.6×100 mm, 5μ (CC01); mobile phase A: H2O+0.1% TFA; mobile phase B: acetonitrile+0.1% TFA; reference concentration: ca. 0.09 mg/mL; retention time: 6.6 minutes; gradient: 0.0 min: A:95%/B:5%; 20.0 min: A:5%/B:95%; 21.0 min: A:95%/B:5%; 30.0 min: A:95%/B:5%; flow: 1.0 mL/minute; injection volume: 10 μL; wavelength: 254 nm. Dynamic Vapor Sorption (DVS) measurements were carried out on a Sorption Measurement System SPS11-100n. The sample was placed in an aluminum crucible and the sample was allowed to equilibrate at a given RH before starting a pre-defined humidity program. (1) 2 h at 50% RH; (2) 50→0% RH (5%/h); (3) 5 h at 0% RH; (4) 0→95% RH (5%/h); (5) 5 h at 95% RH; (6) 95→50% RH (5%/h); (7) 2 h at 50% RH. Hygroscopicity was classified according to the European Pharmacopoeia (storage at 80% RH/25° C. for 24 hours). The mass change at 85% RH was used for classification, as compared to the starting material (at ambient conditions)—very hygroscopic: increase of mass ≧15%; hygroscopic: increase of mass is less than 15% and equal to or greater than 2%; slightly hygroscopic: increase of mass is less than 2% and equal to or greater than 0.2%; deliquescent: sufficient water is absorbed to form a liquid.

The nature of data set [5]: In vitro dissolution study (Ph. Eur. Apparatus 2, paddle). It counts as physicochemical. Conditions: 30 mg, 50 mM phosphate buffer pH 6.8, 50 rpm, 37° C. Here is the method:
An in vitro dissolution study was performed on pemirolast potassium (obtained Chemtronica AB, Stockholm, Sweden) and pemirolast sodium hemihydrate (prepared in accordance with the method described in Example 10 above) using standard Ph. Eur. Methodology (Apparatus 2 (paddle), Ph. Eur., 2.9.3, using 50 mM phosphate buffer pH 6.8 as a dissolution medium. A stirring rate of 50 rpm was employed. The temperature was 37° C.). Tests were performed in triplicate. 30 mg of each substance was added to separate vessels and the timer started. Sampling was at regular intervals using a 1 mL plastic syringe, depending on how quickly the substance appeared to dissolve (by visual inspection). The sample was filtered into HPLC vials using a small diameter filter. The samples were analysed by reversed phase HPLC. Quantification of pemirolast was performed by means of UV detection.

A short description of data set [6]: Stability study at different moisture levels and temperatures (appearance, Karl Fischer, PXRD). Format: physicochemical. The procedure: To determine the relative stability of pemirolast sodium obtained in accordance with the method described in Example 10 (hemihydrate), Example 11 (heptahydrate) and Example 5 (amorphous form) at different moisture levels, a stability study was performed.
The study was performed under four different storage conditions with different moisture levels and temperatures, 40° C./75% RH, 25° C./60% RH, room temperature/10-20% RH, and room temperature/>90% RH. The substances were stored open in glass beakers and samples were withdrawn periodically for analysis (time zero, 1 week and 4 weeks).
At the time intervals mentioned, the visual appearance was inspected by (a) placing a spatula of substance on a white background, munktell filter (no smearing or crushing of the substances was performed), and (b) by microscopy equipped with plane polarized light. The water content was also analysed using Karl Fischer titration. PXRD was conducted at time zero and at 4 weeks.

Data set [7] can be described thus: PXRD of 30 mg tablets after tabletting. Conditions: crushed and intact. Format: physicochemical. Here is the method: For all tablets, friability and crushing resistance tests were conducted according to standard methodology (Ph. Eur. 6.0, 2.9.7 and 2.9.8, respectively, with the exception that the crushing resistance results are presented in kp rather than N according to the Ph. Eur.). PXRD was also performed on the 30 mg tablets after tabletting on both crushed and intact tablets. In view of the endotherms observed (and reported in Example 11 above) by DSC for the heptahydrate, it was expected that this may limit the ability of that polymorph to form tablets by compression (given that internal temperatures of 70° C. can easily be reached during the compression process). It was therefore decided to analyse the 30 mg tablets by PXRD as stated above.

Data set [8] concerns plasma tryptase. Description: Plasma tryptase levels in subjects with CRP above 0.9 mg/L. Format: in vivo.
Data set [9] can be described thus: Storage under ambient conditions followed by FT-Raman. Format: physicochemical. Conditions: about a month. The procedure:
FT-Raman spectra were recorded on a Bruker RFS 100 FT-Raman system with a near infrared Nd:YAG laser operating at 1064 nm and a liquid nitrogen-cooled germanium detector. 64 scans with a resolution of 2 cm^−1 were accumulated in the range from 3500 to 50 cm^−1. In general, 100 mW laser power was used.
The Raman spectrum was recorded directly after recrystallisation. All samples were then stored under ambient conditions on a shelf in a fume hood. […] This is shown in FIG. 4, where the lower spectrum accords to the earlier measurement and the upper spectrum accords to the later measurement.

Setting [10] is: listed as potassium salt of pemirolast.
Where [11] appears, read: listed as Example 2, Sodium Hemihydrate.
Setting [12] is: listed as Example 1, Sodium Hemihydrate.

Take `Cc1cccn2c(=O)c(-c3nnn[nH]3)cnc12` [pemirolast potassium, reference compound]: in [1], the plasma concentration profile result is recorded as “sharp plasma concentration peaks”. In data set [2] (Pharmaceutical Interview Form), the “hygroscopicity (reported)” value is given as “hygroscopic”. The “aqueous solubility (reported)” value in data set [2] (source: Pharmaceutical Interview Form) was 179 to 182 mg/mL. In data set [3] (setting [10]), the aqueous solubility came out at 192.38 mg/mL and the “pH of the saturated solution” value turned out to be 9.0. For the same molecule, in data set [4], the “relative humidity above which significant water uptake starts” value is recorded as “above 70 % RH” and the “hygroscopicity class by DVS analysis” value was “very hygroscopic (very hygroscopic: increase of mass ≧15%)”. Moreover, in data set [5] (listed as potassium salt), the dissolution behaviour entry is “dissolved as soon as it was added to the dissolution medium”.
On to `Cc1cccn2c(=O)c(-c3nn[n-]n3)cnc12.O.O.O.O.O.O.O.[Na+]` [pemirolast sodium heptahydrate, Pemirolast Sodium Heptahydrate], for which the solid phase stability entry in data set [6] (60% RH, up to 4 weeks) is “stable”; in data set [6] (75% RH), “converted partially to the new solid state form”; in [6] (90% RH) it was “no signs of phase transitions were observed”; in [6] (dry conditions (10-20% RH)) it was “converted to the hemihydrate form”. The “phase transitions during tabletting (PXRD)” value in data set [7] is given as “no phase transitions occurred”.
In the case of `Cc1cccn2c(=O)c(-c3nnn[nH]3)cnc12` [pemirolast, 9-Methyl-3-(1H-tetrazol-5-yl)-4H-pyrido[1,2-a]pyrimidin-4-one], in data set [8], the “effect on plasma tryptase levels” value is reported as “does not concomitantly reduce plasma tryptase levels”.
As for `Cc1cccn2c(=O)c(-c3nnn[n-]3)cnc12.[Na+]` [amorphous form of pemirolast sodium, reference compound], the solid phase stability result is “crystallized” in data set [6] (60% RH and above); “remains amorphous” in data set [6] (dry conditions (10-20% RH)). Moreover, the “physical stability (Raman spectrum changed)” value in [9] is on record as “physically unstable”.
Consider `Cc1cccn2c(=O)c(-c3nnn[nH]3)cnc12` [pemirolast sodium hemihydrate, Pemirolast Sodium Hemihydrate], for which, in data set [3] (setting [11]), the aqueous solubility is 23.64 mg/mL and the “pH of the saturated solution” value came to 8.0. The solid phase stability result in data set [6] (75% RH and above) was “converted to a previously unknown solid state form”. Further, in data set [6] (relative humidity of 60% and less (down to 10-20% RH), up to 4 weeks), the solid phase stability entry is “stable”. In addition, the “water content (Karl Fischer) on storage, unchanged” value in [6] (relative humidity of 60% and less, up to 4 weeks) came out at 2.8%. Also, in data set [4] (setting [12]), the “relative humidity above which significant water uptake starts” value was “above 80 % RH”; the “hygroscopicity class by DVS analysis” value is “hygroscopic (hygroscopic: increase of mass is less than 15% and equal to or greater than 2%)”. Moreover, the dissolution behaviour entry in data set [5] (listed as sodium hemihydrate salt, Sodium Hemihydrate) was “formed large aggregates and appeared to be more difficult to dissolve”. The “phase transitions during tabletting (PXRD)” value in [7] is recorded as “no phase transitions occurred”.
